Here are results for five compounds from patent US20240385182A1, “MASKED FLUOROGENIC LIPID COMPOUNDS, LIPID PARTICLES COMPRISING THE SAME, AND METHODS OF USE THEREOF” (Rutgers, The State University of New Jersey, priority 2023, published 2024).

The test system of one data set is HeLa and RAW 264.7 cells. The data set can be described thus: MTT cell viability assay. The format is cell-based. The conditions noted are these: 8-250 μM, 24-hour period. As for the experimental part:
With a feasible liposome preparation and treatment protocol established for live cell imaging, attention was turned to assessing the cytocompatibility of the LNPs, with or without DPPC-TC-ONOO^−, DPPC-TC, and the oxa-spiro[4,5] decenone 6a. A standard 3-(4,5-dimethylthiazol-2-yl)-2,5-diphenyl tetrazolium bromide (MTT) cell viability assay in HeLa and RAW 264.7 cells treated with these molecules (8-250 μM) over a 24-hour period. The dose-response curves provided high IC50 values for each compound: DPPC-TC-ONOO− (≥100 μM), DPPC-TC (≥50 μM), and 6 (≥70 μM).

Data set [1] in a line: Photophysical characterization of probes and uncaged forms (relative fluorescence quantum yield, extinction coefficient, brightness). It counts as physicochemical. Conditions: for Brightness: in M⁻¹·cm⁻¹ (unit assumed). As for the experimental part: The pKa of TEG-TC was determined to be 7.1±0.1 using UV-Vis spectrophotometric measurements. Under the confocal imaging conditions (pH 7.5-8.5 with cell-free assays, pH 7.4 with cells), a substantial population of the 7-hydroxycoumarin should exist in its aryloxide form. The change in coumarin fluorogenicity was assessed upon uncaging the probes from the oxobutylphenyl carbonate by measuring the relative fluorescence quantum yield (ΦFrel) values (Table 2). Coumarin 343 was used as a standard, which has an absolute fluorescence quantum yield ([…]) of 0.63 in ethanol. The ΦFrel values of TEG-TC-ONOO^− (entry 1) and DPPC-TC-ONOO^− (entry 3) were measured as 0.08 and 0.09, respectively. […] The ΦFrel values for TEG-TC (entry 2) and DPPC-TC (entry 4), which were synthesized independently, were measured as 0.66 and 0.64, respectively.
Next, the impact of caging and uncaging of the coumarin or fluorescein moieties on their fluorogenicity was assessed by measuring the relative fluorescence quantum yield (ΦFrel) values (Table 3). Coumarin 343 was used as the standard for measuring ΦFrel of the triazole-coumarin compounds (TEG-TC-H2S, TEG-TC, DPPC-TC-H2S, and DPPC-TC) whereas fluorescein for the triazole-fluorescein compounds (TEG-TF-H2O2, TEG-TF, and DPPC-TF-H2O2, and DPPC-TF). Relative to coumarin 343, whose absolute fluorescence quantum yield (ΦF) is 0.63 in ethanol, ΦFrels of the H2S probes TEG-TC-H2S (entry 1) and DPPC-TC-H2S (entry 3) were determined to be 0.07 and 0.03, respectively.
The pKa of TEG-TC was previously found to be to be 7.1±0.1 using UV-Vis spectrophotometric measurements. Under the fluorescence activation assay conditions that are employed here (Tris 50 mM, pH 7.5), a substantial population of the coumarin moiety is expected to be in its aryloxide anion form. Relative to fluorescein, whose ΦF is 0.79 in ethanol, ΦFrel values of the H2O2 probes TEG-TF-H2O2 (entry 5) and DPPC-TF-H2O2 (entry 7) were determined to be 0.04 and 0.02, respectively.

The subject of the next data set is HeLa cells. Nature of the data set: Confocal imaging and colocalization in live HeLa cells. The format is cell-based. The conditions noted are these: LNPs, no stimulation. As for the experimental part:
FIGS. 9A-9E: confocal imaging of lipid environments targeted by ONOO^− in live HeLa cells. Cells were seeded into glass microscope dishes, incubated with LNPs (50 μM) and stained with organelle trackers and/or actin dye prior to imaging. LNPs obtained from a 47.5:47.5:5.0 molar ratio of DOTMA, DOPE, and DPPC-TC-ONOO^−. FIG. 9A: cells treated with LNPs, stimulated with IFN-γ/LPS/PMA. Time coarse images acquired upon PMA treatment. FIG. 9B: cells treated with LNPs and 1400 W. FIG. 9C: cells treated with LNPs, then with 1400 W and IFN-γ/LPS/PMA. FIGS. 9D-9E: quantitative colocalization study of cells treated with LNPs and stimulated with IFN-γ/LPS/PMA. Pearson's correlation coefficient (PCC) was calculated for quantitative assessment. Organelle trackers: ER-Tracker™, MitoTracker™, CellLight™ Golgi-RFP, LysoTracker™. Cell cytoskeleton was assessed with CellMask™ Deep Red Actin Tracking Stain. DPPC-TC channel: 405/475 nm. Scale bars=20 μm (FIGS. 9A-9D) or 5 μm (FIG. 9E). With the utility of DPPC-TC-ONOO^− proven in synthetic protocell membranes, incorporation into live HeLa and RAW 264.7 cells was sought, which are relevant to redox-induced stress and have well-recognized pathways for RNS and ROS production. Lipid nanoparticles (LNPs) (˜100 nm in diameter) was used to deliver DPPC-TC-ONOO− into cells. This method circumvented the limited solubility of DPPC-TC-ONOO− due to the relatively hydrophobic butanone-coumarin motif. LNPs were obtained via sonication from 1,2-di-O-octadecenyl-3-trimethylammonium propane (DOTMA), 1,2-dioleoyl-sn-glycero-3-phosphoethanolamine (DOPE), and DPPC-TC-ONOO− (47.5:47.5:5.0 molar ratio), which were hydrated with a 300 mM sucrose solution. DOTMA and DOPE were chosen as the carrier lipids due to their cationic/zwitterionic natures, which has been postulated to enhance uptake through the cell membrane. The impact of different LNP compositions and incubation times on the cellular incorporation of DPPC-TC-ONOO^− was assessed. […] Specifically, LNPs containing greater than 10 mol % DPPC-TC-ONOO− were considerably more heterogenous in size (up to […] observed, in contrast to ˜100 nm) and nonuniform in vesicle lamellarity. Those with less than 4 mol % DPPC-TC-ONOO− led to insufficient fluorescence signal. To balance these counteracting factors, 5 mol % DPPC-TC-ONOO− was used, with 47.5 mol % DOTMA and DOPE, each. In these initial assays, cells were incubated with LNPs for up to 15 hours to complete the uptake and intracellular localization of DPPC-TC-ONOO−. Shorter incubation times (3-to-5 hours) led to its uptake but not subcellular localization. […] However, high serum concentration in DMEM caused interference between LNPs and serum-protein, resulting in aggregate formation as observed by microscopy. To overcome this obstacle, LNPs (50 μM) were used in a mixture of 2/3 volumetric ratio of sucrose solution and Opti-MEM™, a reduced serum medium known to increase the efficiency of lipofection. […] For a physiologically relevant stress model, the standard stimulation condition involving IFN-γ/LPS/PMA was employed. Treatment of cells with IFN-γ/LPS leads to the endogenous production of nitric oxide and PMA provokes increased levels of superoxide. These two reactive species combine to form peroxynitrite, as described elsewhere herein. […] The intracellular redox selectivity of DPPC-TC-ONOO^− was also assessed using N-(3-(aminomethyl)benzyl)-acetamidine, known as 1400 W, which inhibits the production of NO· by irreversibly binding to iNOS. […] To determine whether DPPC-TC-ONOO^− localizes and functions at a specific subcellular compartment in HeLa, a comprehensive colocalization study was performed with dyes specific for lipid-rich and membrane-enclosed organelles, including the ER, mitochondrion, Golgi apparatus, and lysosome (FIGS. 9D-9E). In addition, actin stain was used to gain a visual insight into the cytoskeletal structure of the whole cell. […]

Data set [2] can be described thus: Specificity of TEG-TC-H2S against other RSS. The method, then:
(§1) The redox-specificities of the non-amphiphilic probes, TEG-TC-H2S or TEG-TF-H2O2, were assessed by subjecting them to various RSS or ROS (FIGS. 13A-13B). Change in fluorescence intensity following excitation of each sample containing the respective probe was measured over 120 minutes of incubation and presented based on the signal-to-background ratio F/F0, where F and F0 are defined as the fluorescence with and without the redox species. The F/F0 of the untreated samples were set to 1 for comparisons. […] Samples containing TEG-TF-H2O2 and treated with 100 μM H2O2 presented a steady fluorescence enhancement within 2 hours, resulting in 4.4-fold higher fluorescence than those of the untreated samples (FIG. 13B).
(§2) The specificity of TEG-TC-H2S toward H2S was evaluated by comparing its reactivity against different RSS, cysteine (Cys), glutathione (GSH), sulfite (SO3^2−), and thiosulfate (S2O3^2−). At 1 mM initial concentration and a total incubation time of 2 hours, these sulfur species induced an increase in coumarin fluorescence by less than 25% compared to the untreated sample (FIG. 13A). […] The specificity of TEG-TF-H2O2 toward H2O2 was also assessed, by incubating the samples containing TEG-TF-H2O2 with 100 μM either hydroxyl radical (·OH), nitric oxide (NO), or superoxide radical (O2·^−) for 2 hours. […]

Data set [3] can be described thus: Fluorescence activation and LoD of TEG-TC-H2S with H2S in Tris buffer. As for the experimental part: FIGS. 13A-13D: specificity (FIGS. 13A-13B) and limit of detection (LoD) (FIGS. 13C-13D) of TEG-TC-H2S and TEG-TF-H2O2. LoD measurements for the probes TEG-TC-H2S (390/475 nm) and TEG-TF-H2O2 (485/525 nm) were performed in Tris buffer (50 mM, pH 7.5). Error bars represent the standard deviation; n=3. Single-tailed Student's t test: *, P<0.05; **, P<0.01; ***, P<0.001; ****, P<0.0001.
as §1
as §2, with “hours. Among these three reactive oxygen species, ·OH induced the highest fluorescence increase (2.2-fold), which was lower than that for H2O2 (4.4-fold). The relatively low yet observable reactivity of ·OH may have been due, in large part, to the residual unreacted H2O2 used for generating ·OH.” for “hours.”

[4] abbreviates: Table 3, brightness compared to that of DPPC-TC-H2S.
Where [5] appears, read: Table 3, brightness compared to that of DPPC-TF-H2O2.

Regarding `CCCCCCCCCCCCCCCC(=O)OCC(COP(=O)([O-])OCC[N+](C)(C)Cc1cn(-c2cc3ccc(O)cc3oc2=O)nn1)OC(=O)CCCCCCCCCCCCCCC` (racemic) [DPPC-TC], in the data set with HeLa and RAW 264.7 cells, the IC50 is no less than 50 µM. Also, in data set [1], the Emmax is 472.0 nm; the Exmax worked out at 398.0 nm; the “Ext. Coeff.” value is 13749 M⁻¹ cm⁻¹; the “enhanced brightness, uncaging product vs caged probe” value stood at 120 fold. In data set [1], this compound displayed a Brightness of 8799. Besides, the “Relative Brightness” value in data set [1] (Table 2, DPPC-TC-ONOO^− = 1.0) came to 35.1. Besides, the “Relative Brightness” value in data set [1] (setting [4]) worked out at 122.2. For the same compound, the “Quantum Yield (relative fluorescence quantum yield ΦFrel)” value in data set [1] (standard coumarin 343) is listed as 0.64. Besides, the “fluorescence at 405/475 nm” value in the data set with HeLa cells is reported as “strong coumarin fluorescence”.
As for `CCCCCCCCCCCCCCCC(=O)OCC(COP(=O)([O-])OCC[N+](C)(C)Cc1cn(-c2ccc3c(c2)C(=O)OC32c3ccc(O)cc3Oc3cc(O)ccc32)nn1)OC(=O)CCCCCCCCCCCCCCC` (racemic) [DPPC-TF], in data set [1], the Emmax was 523.6 nm, the Exmax is on record as 498.1 nm, the “Ext. Coeff.” value was 28990 M⁻¹ cm⁻¹ and the Brightness is recorded as 18264. Moreover, in data set [1] (setting [5]), the “Relative Brightness” value is recorded as 85.3. For the same compound, in data set [1] (standard fluorescein), the “Quantum Yield (relative fluorescence quantum yield ΦFrel)” value is 0.63.
For `[N-]=[N+]=Nc1ccc(COc2ccc3cc(-n4cc(COCCOCCOCCO)nn4)c(=O)oc3c2)cc1` [TEG-TC-H2S], in data set [1], the Emmax was 475.5 nm, the Exmax was determined as 392.3 nm, the “Ext. Coeff.” value was found to be 5347 M⁻¹ cm⁻¹ and the Brightness came to 374. In addition, in data set [1] (setting [4]), the “Relative Brightness” value is reported as 5.2. Also, the “Quantum Yield (relative fluorescence quantum yield ΦFrel)” value in data set [1] (standard coumarin 343) is listed as 0.07. For the same compound, the “fluorescence activation in the presence of H2S compared to the other RSS” value in data set [2] is recorded as no less than 5 fold. Moreover, the “increase in coumarin fluorescence compared to the untreated sample” value in data set [2] (Cys, GSH, SO3^2−, S2O3^2− at 1 mM, 2 hours) is recorded as “less than 25%”. Moreover, the “fluorescence compared to the sample untreated” value in data set [3] (1 mM H2S, 2 hours of incubation, Tris pH 7.5) stood at 2.2 fold. Moreover, the “increase in fluorescence intensity” value in data set [3] (H2S 1 mM, 2 hours) turned out to be 120%. Moreover, in data set [3] (minimum H2S concentration at which F is statistically higher than F0, 390/475 nm, Tris 50 mM pH 7.5), the LoD is 100 µM.
`O=C1OC2(c3ccc(O)cc3Oc3cc(O)ccc32)c2ccc(-n3cc(COCCOCCOCCO)nn3)cc21` [TEG-TF]: in data set [1], the Emmax is given as 522.6 nm, the Exmax turned out to be 494.3 nm, the “Ext. Coeff.” value was 35982 M⁻¹ cm⁻¹ and the Brightness stood at 26267. For the same compound, the “Relative Brightness” value in data set [1] (setting [5]) worked out at 122.7. For the same compound, the “Quantum Yield (relative fluorescence quantum yield ΦFrel)” value in data set [1] (standard fluorescein) turned out to be 0.73.
oxa-spiro[4,5] decenone [Compound 6] showed an IC50 in the data set on HeLa and RAW 264.7 cells of no less than 70 µM.
